{"source": "patent US20080177220A1", "about": "“Ultrasound-Mediated Transcleral Drug Delivery” (THE CURATORS OF THE UNIVERSITY OF MISSOURI, priority 2006, published 2008)", "key": {"[1]": {"assay": "Diffusion of Sodium Fluorescein formulation across Cellu-Por synthetic membrane simulating ocular tissue, with or without ultrasound", "type": "in vitro ADME", "conditions": "ultrasound applied concurrently during application of the formulation, FIG. 3", "description": "The control results 302 display the effect of allowing the formulation to diffuse naturally, while the ultrasound results 304 display the effect of applying ultrasound concurrently during application of the formulation."}, "[2]": {"assay": "Diffusion of Sodium Fluorescein formulation through RCS tissue in a Franz diffusion cell at different ultrasound standoff distances", "type": "in vitro ADME, New Zealand albino rabbits", "conditions": "treat far, 1.00±0.01 cm standoff distance, versus 0.50±0.01 cm (treat near) / control without ultrasound, rabbit RCS tissue, FIG. 4", "description": "By using a standoff distance 136, drug transport can be optimized. A standoff distance is desired to optimize the cavitation effects in the Fraunhofer zone of the ultrasonic energy field. […] The control results 402 represent normal diffusion action of the formulation in the absence of ultrasound. The treat near results 404 represent diffusion of the formulation achieved using a 0.50±0.01 cm standoff distance. The treat far results 406 represent diffusion of the formulation achieved using a 1.00±0.01 cm standoff distance. […] The optimum standoff distance can vary depending on a number of factors, such as, for example, the coupling media, the transducer configuration, the targeted tissue, and the pharmaceutical formulation being administered. The optimum standoff distance for transcleral drug delivery differs from drug delivery attempted through the cornea due to the numerous factors discussed above, including inherent tissue differences and transport phenomena occurring in the blood-retina barrier."}}}
{"compound": "O=C([O-])c1ccccc1-c1c2ccc(=O)cc-2oc2cc([O-])ccc12.[Na+].[Na+]", "note": "[Sodium Fluorescein]", "values": [{"measurement": "permeability with ultrasonic waves versus control (natural diffusion)", "setting": "[1]", "result": "substantially higher"}, {"measurement": "permeability increase using the greater standoff distance", "setting": "[2]", "result": "approximately 30 times higher"}]}
